Measurements taken from PMC11726670, “Impact of Linker Composition on VHL PROTAC Cell Permeability” (Journal of Medicinal Chemistry, 2024).
Values after ≈ are worked out from the molar mass of the structure shown. Where two headings read alike, the source gives them in different places.

Legend:
in vitro = test: in vitro
Protocol: Stock solutions of the controls and of 1–9 were prepared in DMSO at a concentration of 10 mM, then they were further diluted with PBS (pH 7.4) to a final concentration of 10 μM. Five μL of a lecithin/dodecane mixture and 300 μL of PBS (pH 7.4) solution were pipetted into each acceptor plate well, followed by addition of 300 μL of the solutions of the controls or 1–9 to each well of the donor plate. The acceptor plate was placed into the donor plate followed by incubation at 25 °C, 60 rpm for 16 h.[31] After incubation, aliquots of 50 μL from each well of the acceptor and donor plates are transferred into a 96-well plate and 200 μL of acetonitrile was added to each well. Samples were centrifuged for 20 min and compound concentrations were determined by LC/MS/MS (LC system: Shimadzu; Triple Quad).

[1] = chromatographic Log D at pH 7.5; format: physicochemical
Description: The chromatographic lipophilicities of the nine PROTACs were therefore determined to understand to what extent the cell permeability differences may originate from lipophilicity.

physchem = conditions: PBS, pH 6.5, aqueous buffer, kinetic from dmso stock
Description: Before determining the cell permeability of PROTACs 1–8 we assessed their aqueous solubility.

[2] = pKa determined by photometry; format: physicochemical
Protocol: Both compounds were therefore treated as being mainly uncharged in the subsequent analyses, and the uncharged form of 7 was used in the NMR studies of its conformational ensemble in chloroform.
The pKa of 7 was determined by photometry as reported previously.[57]

ERK5 = system: ERK5; set-up: method as in PMID 33488971; conditions: previously reported PROTAC; read-out: IC50 for binding to ERK5; cited from earlier work
VHL = VHL (Homo sapiens, UniProt P40337); test: cell-based VHL binding assay (NanoBRET, live mode); conditions: classified by in cellulo/in vitro ratio
Chain of VHL (P40337 whole entry): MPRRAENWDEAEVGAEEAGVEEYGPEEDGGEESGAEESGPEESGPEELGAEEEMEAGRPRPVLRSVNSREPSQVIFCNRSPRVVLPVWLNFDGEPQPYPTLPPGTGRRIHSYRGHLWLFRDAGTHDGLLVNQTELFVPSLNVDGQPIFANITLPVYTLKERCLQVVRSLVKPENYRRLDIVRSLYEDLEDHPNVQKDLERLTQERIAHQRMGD
Protocol: IC50 values were calculated using a four-parameter fit, with a commercial software package (Genedata Screener, Switzerland).

[3] = PBS at pH 6.5; cited from earlier work
[4] = pH 7.5, chromatographic lipophilicity, pH 7.5, read-out: LogD (pH 7.5)
[5] = pH 7.5, chromatographic, supplement, read-out: LogD, pH 7.50

Row | SMILES | Papp at 16 h, 10 μM (in vitro; PAMPA, pH 7.4) [×10⁻⁶ cm/s] | chromatographic logD [1, 4] | chromatographic logD [1, 5] | PAMPA, mean (LogPe, cm/s) (in vitro; 16 h, 10 μM) | PAMPA Log[Pe (cm/s)] (in vitro; 16 h, 10 μM, pH 7.4) | solubility (physchem) [µM] | solubility kinetic (physchem) [µM] | higher PAMPA permeability (in vitro) | uncharged fraction ([2]; at pH 7.4, from determined pKa) [%] | partially charged fraction ([2]; at physiological pH) [%] | pKa ([2]; tertiary amine of linker, photometry) | improvement in PAMPA permeability (in vitro; 16 h, 10 μM) [fold] | IC50 (ERK5) [µM] | cell permeability class (in words) (VHL) | kinetic solubility [3] [µM]
1 | CN(Cc1cnc2nc(N)nc(N)c2n1)c1ccc(C(=O)N[C@@H](CCC(=O)O)C(=O)O)cc1 [Methotrexate, reference compound] | 0.00427 | – | – | – | – | – | – | – | – | – | – | – | – | – | –
2 | Cc1ncsc1-c1ccc(CNC(=O)[C@@H]2C[C@@H](O)CN2C(=O)[C@@H](NC(=O)CCCCCCCCOc2cnc3c(C4CCN(C(=O)c5ccc(OC(F)(F)F)cc5)CC4)ncnc3c2)C(C)(C)C)cc1 [PROTAC 1, 3-Methyl-N-{9-[(4-{1-[4-(trifluoromethoxy)benzoyl]piperidin-4-yl}pyrido[3,2-d]pyrimidin-7-yl)oxy]nonanoyl}-L-valyl-(4R)-4-hydroxy-N-[4-(4-methyl-1,3-thiazol-5-yl)benzyl]-L-prolinamide] | – | 3.8 | 3.81 | -8,29 cm/s | –8.29 ± 0.023 cm/s | < 0.1 | < 1 | – | – | – | – | – | – | – | –
3 | Cc1ncsc1-c1ccc(CNC(=O)[C@@H]2C[C@@H](O)CN2C(=O)[C@@H](NC(=O)CCOCCOCCOc2cnc3c(C4CCN(C(=O)c5ccc(OC(F)(F)F)cc5)CC4)ncnc3c2)C(C)(C)C)cc1 [PROTAC 2, 3-Methyl-N-[3-(2-{2-[(4-{1-[4-(trifluoromethoxy)benzoyl]piperidin-4-yl}pyrido[3,2-d]pyrimidin-7-yl)oxy]ethoxy}ethoxy)propanoyl]-L-valyl-(4R)-4-hydroxy-N-[4-(4-methyl-1,3-thiazol-5-yl)benzyl]-L-prolinamide] | – | 2.9 | 2.89 | -5,42 cm/s | –5.42 ± 0.035 cm/s | 0.64 (≈ 0.634 µg/mL) | < 1 | ~3 orders of magnitude | – | – | – | – | – | – | –
4 | Cc1ncsc1-c1ccc(CNC(=O)[C@@H]2C[C@@H](O)CN2C(=O)[C@@H](NC(=O)CCOCCNC(=O)COc2cnc3c(C4CCN(C(=O)c5ccc(OC(F)(F)F)cc5)CC4)ncnc3c2)C(C)(C)C)cc1 [PROTAC 3, 3-Methyl-N-[3-(2-{2-[(4-{1-[4-(trifluoromethoxy)benzoyl]piperidin-4-yl}pyrido[3,2-d]pyrimidin-7-yl)oxy]acetamido}ethoxy)propanoyl]-L-valyl-(4R)-4-hydroxy-N-[4-(4-methyl-1,3-thiazol-5-yl)benzyl]-L-prolinamide] | – | 2.7 | 2.66 | -6,21 cm/s | –6.21 ± 0.046 cm/s | 17 (≈ 17.1 µg/mL) | 10 to 20 (≈ 10 to 20.1 µg/mL) | – | – | – | – | – | – | – | –
5 | Cc1ncsc1-c1ccc(CNC(=O)[C@@H]2C[C@@H](O)CN2C(=O)[C@@H](NC(=O)COCc2cn(CCOc3cnc4c(C5CCN(C(=O)c6ccc(OC(F)(F)F)cc6)CC5)ncnc4c3)nn2)C(C)(C)C)cc1 [PROTAC 4, 3-Methyl-N-{[(1-{2-[(4-{1-[4-(trifluoromethoxy)benzoyl]piperidin-4-yl}pyrido[3,2-d]pyrimidin-7-yl)oxy]ethyl}-1H-1,2,3-triazol-4-yl)methoxy]acetyl}-L-valyl-(4R)-4-hydroxy-N-[4-(4-methyl-1,3-thiazol-5-yl)benzyl]-L-prolinamide] | – | 2.7 | – | <-7,94 cm/s | <−7.94 ± 0.20 cm/s | 12.1 (≈ 12.3 µg/mL) | 10 to 20 (≈ 10.1 to 20.3 µg/mL) | – | – | – | – | – | – | – | –
6 | Cc1ncsc1-c1ccc(CNC(=O)[C@@H]2C[C@@H](O)CN2C(=O)[C@@H](NC(=O)Cc2ccc(OCCOc3cnc4c(C5CCN(C(=O)c6ccc(OC(F)(F)F)cc6)CC5)ncnc4c3)cc2)C(C)(C)C)cc1 [PROTAC 5, 3-Methyl-N-[(4-{2-[(4-{1-[4-(trifluoromethoxy)benzoyl]piperidin-4-yl}pyrido[3,2-d]pyrimidin-7-yl)oxy]ethoxy}phenyl)acetyl]-L-valyl-(4R)-4-hydroxy-N-[4-(4-methyl-1,3-thiazol-5-yl)benzyl]-L-prolinamide] | – | 3.2 | 3.25 | <-7,56 cm/s | <−7.56 ± 0.30 cm/s | 0.36 (≈ 0.363 µg/mL) | < 1 | – | – | – | – | – | – | – | –
7 | Cc1ncsc1-c1ccc(CNC(=O)[C@@H]2C[C@@H](O)CN2C(=O)[C@@H](NC(=O)Cc2ccc(OCCOc3cnc4c(C5CCN(C(=O)c6ccc(OC(F)(F)F)cc6)CC5)ncnc4c3)cn2)C(C)(C)C)cc1 [PROTAC 6, 3-Methyl-N-[(5-{2-[(4-{1-[4-(trifluoromethoxy)benzoyl]piperidin-4-yl}pyrido[3,2-d]pyrimidin-7-yl)oxy]ethoxy}pyridin-2-yl)acetyl]-L-valyl-(4R)-4-hydroxy-N-[4-(4-methyl-1,3-thiazol-5-yl)benzyl]-L-prolinamide] | – | 3 | 2.97 | -7,28 cm/s | –7.28 ± 0.035 cm/s | 0.52 (≈ 0.525 µg/mL) | < 1 | – | – | – | – | – | – | – | –
8 | Cc1ncsc1-c1ccc(CNC(=O)[C@@H]2C[C@@H](O)CN2C(=O)[C@@H](NC(=O)CN(C)CCCCCCOc2cnc3c(C4CCN(C(=O)c5ccc(OC(F)(F)F)cc5)CC4)ncnc3c2)C(C)(C)C)cc1 [PROTAC 7, N-Methyl-N-{6-[(4-{1-[4-(trifluoromethoxy)benzoyl]piperidin-4-yl}pyrido[3,2-d]pyrimidin-7-yl)oxy]hexyl}glycyl-3-methyl-L-valyl-(4R)-4-hydroxy-N-[4-(4-methyl-1,3-thiazol-5-yl)benzyl]-L-prolinamide] | – | 3.7 | 3.74 | -6,67 cm/s | –6.67 ± 0.017 cm/s | – | – | – | 76 | < 25 | 6.9 | 40 | – | – | –
9 | Cc1ncsc1-c1ccc(CNC(=O)[C@@H]2C[C@@H](O)CN2C(=O)[C@@H](NC(=O)CN2CCC(CCCOc3cnc4c(C5CCN(C(=O)c6ccc(OC(F)(F)F)cc6)CC5)ncnc4c3)CC2)C(C)(C)C)cc1 [PROTAC 8, 3-Methyl-N-[(4-{3-[(4-{1-[4-(trifluoromethoxy)benzoyl]piperidin-4-yl}pyrido[3,2-d]pyrimidin-7-yl)oxy]propyl}piperidin-1-yl)acetyl]-L-valyl-(4R)-4-hydroxy-N-[4-(4-methyl-1,3-thiazol-5-yl)benzyl]-L-prolinamide] | – | 3.6 | 3.64 | -6,9 cm/s | –6.90 ± 0.061 cm/s | – | – | – | – | – | – | – | – | – | –
10 | Cc1ncsc1-c1ccc(CNC(=O)[C@@H]2C[C@@H](O)CN2C(=O)[C@@H](NC(=O)COCCOCCNC(=O)COc2cnc3c(C4CCN(C(=O)c5ccc(OC(F)(F)F)cc5)CC4)ncnc3c2)C(C)(C)C)cc1 [PROTAC 9] | – | 2.7 | 2.68 | -6,3 cm/s | –6.30 ± 0.074 cm/s | – | – | – | – | – | – | – | 1.23 | high | 6.8 (≈ 7.03 µg/mL)
